Measured values: paper PMC9315884, “New Membrane Active Antibacterial and Antiviral Amphiphiles Derived from Heterocyclic Backbone of Pyridinium-4-Aldoxime” (Pharmaceuticals, 2022)
“And” between values parts separate entries of the source, which are not always exact repeats. Equal values may be shown once. Read-outs that look alike come from different tables or passages of the source.

Assays:
[1] = system: RPE1 cells; experiment: Cytotoxicity (MTS assay); conditions: 48 h
Protocol: (§1) Keratinocytes are the primary cell type found in the outermost layer of the skin. Therefore, HaCaT cells were used as a model for human skin, and RPE1 are retinal pigment epithelial cells, thus a model for epithelial cell type.
(§2) Cells were grown in DMEM media in a humidified environment with 5% CO2 and 37 °C. To determine cytotoxicity, a twofold serial dilution of a tested compound starting at 5 mg/mL was prepared in a 96-well plate. Five thousand cells were pipetted into each well, and the cells were grown for an additional 48 h. Then, the reagent MTS (20 μL) was added to the cells according to the manufacturer’s instructions (CellTiter 96® Aqueous One Solution Cell Proliferation Assay, Promega). After 3 h of incubation, the absorbance was measured at 490 nm. IC50 values were determined by plotting compound concentration against absorbance using GraFit6 software.

[2] = system: HaCaT cells; experiment: Cytotoxicity (MTS assay); conditions: 48 h
Protocol: as §1, §2

[3] = system: Salmonella enterica food isolate; experiment: Broth microdilution assay (MIC); assay type: cell-based; conditions: 18 h, S. enterica food isolate
Protocol: (§3) The antibacterial activity of all compounds was evaluated by determining the minimum inhibitory concentration (MIC), which is defined as the lowest concentration of the compound at which no visible bacterial growth is detected. The compounds were tested against representatives of Gram-positive and Gram-negative strains, including the ESKAPE bacterium Staphylococcus aureus ATCC25923 and the clinical isolate of methicillin-resistant S. aureus (MRSA), which are known for their pathogenicity.
(§4) The collection included five Gram-positive strains, including Staphylococcus aureus (ATCC 25923 and a methicillin-resistant Staphylococcus aureus clinical strain MRSA), Bacillus cereus ATCC 14579, Enterococcus faecalis ATCC 29212, and Listeria monocytogenes ATCC 7644; and three Gram-negative strains: Escherichia coli ATCC 25922, Pseudomonas aeruginosa ATCC 27853 and the food isolate Salmonella enterica. All microbial strains were maintained at ™80 °C for long-term storage and subcultured on Mueller-Hinton (MH) agar (Biolife, Italy) prior to broth microdilution experiments. The MH plates were stored at +4 °C for no longer than one month.
(§5) Antibacterial activity was evaluated using the Broth Microdilution Assay according to the Clinical and Laboratory Standard Institute’s Methods for Dilution Antimicrobial Susceptibility Test for Bacteria That Grow Aerobically; Approved Standard-Tenth Edition.
(§6) The stock solution of QAS (10 mg/mL) was prepared in 4% DMSO. Then, 100 µL of the tested QAS was added to the first well of the microtiter plate. Twofold serial dilutions in Muller-Hinton broth were performed over the entire plate at a concentration range of 5 mg/mL to 5 µg/mL. To each well, 50 µL of mid-exponentially grown inoculum containing 10^5 CFU/mL in Mueller-Hinton broth was added and incubated at 37 °C for 18 hours. The minimum inhibitory concentration (MIC) was determined as the lowest concentration at which no visually detectable bacterial growth occurred in the wells.

[4] = system: methicillin-resistant Staphylococcus aureus clinical strain MRSA; experiment: Broth microdilution assay (MIC); assay type: cell-based
Protocol: as §3, §4, §5, §6

[5] = system: Pseudomonas aeruginosa ATCC27853; experiment: Broth microdilution assay (MIC); assay type: cell-based
Protocol: as §3
(§7) All microbial strains were maintained at ™80 °C for long-term storage and subcultured on Mueller-Hinton (MH) agar (Biolife, Italy) prior to broth microdilution experiments. The MH plates were stored at +4 °C for no longer than one month.
as §5
as §6, with “To each well, 50 µL of mid-exponentially grown inoculum containing 10^5 CFU/mL in Mueller-Hinton broth was added and incubated at 37 °C for 18 hours.” left out

[6] = system: Escherichia coli ATCC25922; experiment: Broth microdilution assay (MIC); assay type: cell-based; conditions: ATCC25922, 18 h
Protocol: as §3, §7, §5
as §6, with “To each well, 50 µL of mid-exponentially grown inoculum containing 10^5 CFU/mL in Mueller-Hinton broth was added and incubated at 37 °C for 18 hours.” left out

[7] = system: Bacillus cereus ATCC14579; experiment: Broth microdilution assay (MIC); assay type: cell-based
Protocol: as §3, §7, §5
as §6, with “To each well, 50 µL of mid-exponentially grown inoculum containing 10^5 CFU/mL in Mueller-Hinton broth was added and incubated at 37 °C for 18 hours.” left out

[8] = system: Listeria monocytogenes ATCC7644; experiment: Broth microdilution assay (MIC); assay type: cell-based
Protocol: as §3, §7, §5
as §6, with “To each well, 50 µL of mid-exponentially grown inoculum containing 10^5 CFU/mL in Mueller-Hinton broth was added and incubated at 37 °C for 18 hours.” left out

[9] = system: Staphylococcus aureus ATCC25923; experiment: Broth microdilution assay (MIC); assay type: cell-based; conditions: for MIC: Staphylococcus aureus
Protocol: as §3, §7, §5
as §6, with “To each well, 50 µL of mid-exponentially grown inoculum containing 10^5 CFU/mL in Mueller-Hinton broth was added and incubated at 37 °C for 18 hours.” left out

[10] = system: Enterococcus faecalis ATCC29212; experiment: Broth microdilution assay (MIC); assay type: cell-based
Protocol: as §3, §7, §5
as §6, with “To each well, 50 µL of mid-exponentially grown inoculum containing 10^5 CFU/mL in Mueller-Hinton broth was added and incubated at 37 °C for 18 hours.” left out

[11] = system: Tobacco mosaic virus (TMV); experiment: Antiphytoviral activity assay (local lesions on host plant leaves); assay type: in vivo, Tobacco mosaic virus on Datura stramonium; conditions: Datura stramonium leaves
Protocol: Leaves of Nicotiana tabacum L. cv. Samsun plants systemically infected with Tobacco mosaic virus (TMV) were ground in 0.06 mol/L phosphate buffer, pH 7.0 (1:1, w/v) to prepare virus inocula. […] Leaves of the local host Datura stramonium L. were dusted with silicon carbide (Sigma-Aldrich, St. Louis, MO, USA) before virus inoculation, and the inoculum was diluted with inoculation buffer to obtain 5–20 lesions per inoculated leaf. Experiments were performed when the experimental plants reached the 4–6 leaf stage.
The tested QAS (10 mg/mL) were dissolved in 4% DMSO and added to the virus inocula at a final concentration of 100 µg/mL. DMSO was added to the control virus inocula at the same concentration. The control and treated plants were then rubbed with the prepared inocula and the antiviral activity of the tested compounds was evaluated by the percentage inhibition of the number of local lesions on the leaves of the treated and control plants as described in [40]. The obtained data were analyzed in Excel (Microsoft Office) and significant differences were determined by t-test.

[12] = system: Escherichia coli DH5α; experiment: MIC determination before AFM; assay type: cell-based
[13] = system: Escherichia coli DH5α cells; experiment: AFM, bright-field and SYTO9/PI fluorescence microscopy of treated cells; assay type: cell-based; conditions: E. coli DH5α
Protocol: Optical and atomic force microscopy of the immobilized untreated and treated cells was performed to visualize the effect of Py-C12 on the bacterial membrane. For these experiments we used Escherichia coli DH5α cells because these cells allowed solid immobilization with persevered cell viability.
After making sure that the cells were properly immobilized and proliferating (a few new generations of cells were observed via optical microscopy), we started the treatment. To accelerate the process of time-dependent membrane damage, the cells were treated with the 4xMIC of Py-C12 for three hours after which the sample was rinsed with the fresh growth medium.
To estimate the percentage of cells whose membrane had been permeabilized by the treatment, the same group of cells was stained simultaneously with two fluorescent nucleic dyes, SYTO9 and propidium iodide (PI). […] When applied together, PI tends to displace SYTO9 from nucleic acid and the cells fluorescence in red. […]
AFM measurements of immobilized cells, both untreated and treated, were performed using the Nano-wizard IV system (JPK/Bruker, Berlin, Germany) operating in quantitative imaging (QI) mode with SNL-B probes (Bruker, Billerica, MA, USA). The AFM system was integrated with an IX73 inverted fluorescence optical microscope (Olympus, Tokyo, Japan). […]

[14] = compound 100 µg/mL inoculated simultaneously with TMV

With `ON=Cc1ccncc1` [Py-4-ox, pyridine-4-aldoxime, reference compound] the Cytotoxicity in words [1] was “moderately toxic”, the Cytotoxicity in words [2] was “moderately toxic” and the MIC [3] was 5000 µg/mL and 40900 µM. The MIC ([4]; 18 h, S. aureus clinical/MRSA, read-out: MIC) was greater than 5000 µg/mL, the MIC ([5]; 18 h, P. aeruginosa ATCC27853, read-out: MIC) was > 5000 µg/mL and > 40900 µM and the MIC ([6]; E. coli ATCC25922, read-out: MIC) was > 5000 µg/mL and > 40900 µM. The MIC ([7]; 18 h, B. cereus ATCC14579, read-out: MIC) was greater than 5000 µg/mL, the MIC ([8]; 18 h, L. monocytogenes ATCC7644, read-out: MIC) was > 5000 µg/mL and > 40900 µM and the MIC ([9]; S. aureus ATCC25923, 18 h, 37 °C, read-out: MIC) was greater than 5000 µg/mL. The MIC ([10]; 18 h, E. faecalis ATCC29212, read-out: MIC) was 5000 µg/mL and 40900 µM.

With `CCCCCCCCCCCC[n+]1ccc(C=NO)cc1` [Py-C12] the “Number of local lesions (LLN ± SD)” value [11, 14] was 3.0±1.1, the “Percentage of inhibition of local lesions” value ([11]; compound 100 µg/mL inoculated simultaneously with TMV, vs control plants) was 78.1% and the “MIC against E. coli DH5α in words” value [12] was “equivalent to that of E. coli ATTC 25922”. For the same compound, the “effect on number of bacterial cells (bright-field)” value ([13]; 4xMIC, 3 h) was “bacteriostatic effect”, the “percentage of permeabilized cells” value ([13]; 4 × MIC, 3 h treatment, SYTO9/PI staining, 344 cells) was 87% and the MIC [3] was 630 µg/mL and 1700 µM. The MIC ([4]; MRSA, 18 h) was 310 µg/mL, the MIC ([5]; ATCC27853, 18 h) was 2500 µg/mL and 6730 µM and the MIC [6] was 630 µg/mL and 1700 µM. For the same compound, the MIC ([7]; ATCC14579, 18 h) was 1250 µg/mL, the MIC ([8]; ATCC7644, 18 h) was 630 µg/mL and 1700 µM and the MIC ([9]; ATCC25923, 18 h) was 80 µg/mL. The MIC ([10]; ATCC29212, 18 h) was 630 µg/mL and 1700 µM.

`CCCCCCCCCCCCCC[n+]1ccc(C=NO)cc1` [Py-C14] was tested, and the “fold higher LLN than the control BAB” value ([11]; 100 µg/mL) was 5 fold, the “Number of local lesions (LLN ± SD)” value [11, 14] was 1.0±0.4 and the Cytotoxicity in words [1] was “moderately toxic”. For the same compound, the Cytotoxicity in words [2] was “moderately toxic”, the MIC [3] was 2500 µg/mL and 6260 µM and the MIC ([4]; MRSA, 18 h) was 160 µg/mL. For the same compound, the MIC ([5]; ATCC27853, 18 h) was 2500 µg/mL and 6260 µM, the MIC [6] was 630 µg/mL and 1580 µM and the MIC ([7]; ATCC14579, 18 h) was 1250 µg/mL. The MIC ([8]; ATCC7644, 18 h) was 310 µg/mL and 780 µM, the MIC ([9]; ATCC25923, 18 h) was 80 µg/mL and the MIC ([10]; ATCC29212, 18 h) was 310 µg/mL and 780 µM.

With `CCCCCCCCCCCCCCCC[n+]1ccc(C=NO)cc1` [Py-C16] the Cytotoxicity in words [1] was “moderately toxic”, the Cytotoxicity in words [2] was “moderately toxic” and the MIC [3] was 5000 µg/mL and 11700 µM. For the same compound, the MIC ([4]; MRSA) was 160 µg/mL, the MIC ([4]; MRSA, 18 h) was 160 µg/mL and the MIC ([5]; ATCC27853, 18 h) was 2500 µg/mL and 5850 µM. For the same compound, the MIC [6] was 160 µg/mL and 370 µM, the MIC ([7]; ATCC14579, 18 h) was 160 µg/mL and the MIC ([8]; ATCC7644, 18 h) was 1250 µg/mL and 2920 µM. The “fold higher MIC than CPC” value ([9]; S. aureus ATCC25923) was 28 fold, the “fold higher MIC than cefotaxime” value ([9]; S. aureus ATCC25923) was 10 fold and the MIC ([9]; ATCC25923, 18 h) was 40 µg/mL. The MIC ([10]; ATCC29212, 18 h) was 2500 µg/mL and 5850 µM.
